Reference: patent publication US20260167673A1, “NOVEL POLYPEPTIDE, POLYPEPTIDE DERIVATIVE AND USE THEREOF” (NANJING ANJI BIOTECHNOLOGY CO., LTD., priority 2023, published 2026)
Marks after values point to notes of the source that are not given here. Where no end group is shown, it is not given here.

Legend:
Type in all cases: cell-based
[1] = test system: human acute promyelocytic leukemia cells NB4; assay: CCK8 proliferation inhibition, NB4; details: NB4, 50 μM, 48 h
Protocol: (§1) Incubation was continued for 4 h in a cell incubator, an absorbance was measured at 450 nm, and a proliferation inhibition was calculated. Data was presented as mean±SD, and GraphPad Prism 5.0 statistical software was used. A t-test was used for comparison between two groups, while One-way Anova (Dunnett) was used for comparison among a plurality of groups.

[2] = test system: human liver cancer cells HepG2; assay: CCK8 proliferation inhibition, HepG2; details: HepG2, 50 μM, 48 h
Protocol: as §1

[3] = test system: human diffuse large B-cell lymphoma (DLBCL) cells WSU-DLCL2; assay: CCK8 proliferation inhibition, WSU-DLCL2; details: WSU-DLCL2, 50 μM, 48 h
Protocol: as §1

[4] = test system: human acute myeloid leukemia cells KG-1; assay: CCK8 proliferation inhibition, KG-1; details: KG-1, 50 μM, 48 h
Protocol: as §1

[5] = test system: human non-small cell lung cancer cells A549; assay: CCK8 proliferation inhibition, A549; details: A549, 50 μM, 48 h
Protocol: as §1

[6] = test system: human lung cancer A549 cells; assay: Transwell metastasis inhibition, A549; details: 48 h
Protocol: (§2) Melanoma, cervical cancer, ovarian cancer, liver cancer, and lung cancer cells were seeded into transwell chambers, with 100 μL per well. Different doses of the HMMW micropeptide and the novel polypeptide HMMW15-51 were added to each chamber as a treatment group, while no drug was added to a blank group. Then, 0.6 mL of a complete culture medium containing 10% FBS was added to the lower chambers of the transwell to stimulate cell metastasis, and the cells were cultured at 5% CO2 and 37° C. for 48 h. The culture solution was discarded from the wells. The cells were fixed with methanol at room temperature for 30 min, stained with 0.1% crystal violet at room temperature for 10 min, and rinsed with clean water. The upper layer nonmetastatic cells were wiped off with a cotton swab. The cells were observed under a microscope, and four fields of view were selected to take photos and count the cells. A metastasis inhibition (MI) was calculated according to a formula: […]
(§3) where Ntest represents the number of cell metastases in the treatment group, and Ncontrol represents the number of cell metastases in the blank control group.
(§4) Data was presented as mean±SD, and GraphPad Prism 5.0 statistical software was used.

[7] = test system: human ileocecal cancer cells HCT-8; assay: CCK8 proliferation inhibition, HCT-8; details: HCT-8, 50 μM, 48 h
Protocol: as §1

[8] = test system: human breast cancer cells MDA-MB-231; assay: CCK8 proliferation inhibition, MDA-MB-231; details: MDA-MB-231, 50 μM, 48 h
Protocol: as §1

[9] = test system: human prostate cancer cells PC-3; assay: CCK8 proliferation inhibition, PC-3; details: PC-3, 50 μM, 48 h
Protocol: as §1

[10] = test system: human ovarian clear cell carcinoma cells ES-2; assay: CCK8 proliferation inhibition, ES-2; details: ES-2, 50 μM, 48 h
Protocol: as §1

[11] = test system: human neuroblastoma cells SH-SY5Y; assay: CCK8 proliferation inhibition, SH-SY5Y; details: 50 μM, 48 h
Protocol: as §1

[12] = test system: human oral epidermoid carcinoma cells KB; assay: CCK8 proliferation inhibition, KB; details: 50 μM, 48 h
Protocol: as §1

[13] = test system: human brain astrocytoma cells U87MG; assay: CCK8 proliferation inhibition, U87MG; details: 50 μM, 48 h
Protocol: as §1

[14] = test system: human cervical cancer epithelial cells CaSki; assay: CCK8 proliferation inhibition, CaSki; details: 50 μM, 48 h
Protocol: as §1

[15] = test system: human giant cell lung cancer cells 95-D; assay: CCK8 proliferation inhibition, 95-D; details: 50 μM, 48 h
Protocol: as §1

[16] = test system: human prostate cancer cells 22RV1; assay: CCK8 proliferation inhibition, 22RV1; details: 22RV1, 50 μM, 48 h
Protocol: as §1

[17] = test system: human gastric cancer cells BGC-823; assay: CCK8 proliferation inhibition, BGC-823; details: BGC-823, 50 μM, 48 h
Protocol: as §1

[18] = test system: human small intestine cancer cells HIC; assay: CCK8 proliferation inhibition, HIC; details: 50 μM, 48 h
Protocol: as §1

[19] = test system: human uterine epidermal cancer cells MS751; assay: CCK8 proliferation inhibition, MS751; details: MS751, 50 μM, 48 h
Protocol: as §1

[20] = test system: human lymphoma cells Raji; assay: CCK8 proliferation inhibition, Raji; details: 50 μM, 48 h
Protocol: as §1

[21] = test system: human colon cancer cells HT29; assay: CCK8 proliferation inhibition, HT29; details: HT29, 50 μM, 48 h
Protocol: as §1

[22] = test system: human T lymphoblastic leukemia cells Jurkat, Clone E6-1; assay: CCK8 proliferation inhibition, Jurkat, Clone E6-1; details: Clone E6-1, 50 μM, 48 h
Protocol: as §1

[23] = test system: human lung squamous cell carcinoma cells SK-MES-1; assay: CCK8 proliferation inhibition, SK-MES-1; details: SK-MES-1, 50 μM, 48 h
Protocol: as §1

[24] = test system: human acute lymphoblastic leukemia cells CEM/C1; assay: CCK8 proliferation inhibition, CEM/C1; details: CEM/C1, 50 μM, 48 h
Protocol: as §1

[25] = test system: human liver cancer Hep3B cells; assay: Transwell metastasis inhibition, Hep3B; details: 50 μmol/L, 48 h
Protocol: as §2, §3, §4

[26] = test system: human esophageal cancer cells TE-13; assay: CCK8 proliferation inhibition, TE-13; details: TE-13, 50 μM, 48 h
Protocol: as §1

[27] = test system: human liver cancer cells HCCLM3; assay: CCK8 proliferation inhibition, HCCLM3; details: HCCLM3, 50 μM, 48 h
Protocol: as §1

MERAGVPGFSPRRSSVEAKMQSTSCSVRKSSTVTAWPAVVLLLSWGQRRGG [HMMW]
Inhibition (%) [1]: 47.692 ± 4.919 % | OD [1]: 0.740 ± 0.070 | Inhibition (%) [2]: 52.579 ± 2.504 % | OD [2]: 0.509 ± 0.027 | Inhibition (%) [3]: 44.365 ± 2.462 % | OD [3]: 0.731 ± 0.032 | Inhibition (%) [4]: 37.600 ± 5.989 % | OD [4]: 0.725 ± 0.070 | Inhibition (%) [5]: 52.950 ± 2.023 % | OD [5]: 0.508 ± 0.022 | Number of cell metastases ([6]; A549, 50 μmol/L): 33 ± 20.50 | Inhibition (%) ([6]; A549 metastasis, 50 μmol/L): 94.57*** % | Inhibition (%) [7]: 48.687 ± 3.785 % | OD [7]: 0.482 ± 0.036 | Inhibition (%) [8]: 65.216 ± 4.512 % | OD [8]: 0.429 ± 0.056 | Inhibition (%) [9]: 50.341 ± 3.864 % | OD [9]: 0.509 ± 0.040 | Inhibition (%) [10]: 51.916 ± 0.690 % | OD [10]: 0.464 ± 0.007 | Inhibition (%) [11]: 50.542 ± 4.982 % | OD [11]: 0.486 ± 0.049 | Inhibition (%) [12]: 53.399 ± 3.971 % | OD [12]: 0.471 ± 0.040 | Inhibition (%) [13]: 62.176 ± 2.001 % | OD [13]: 0.365 ± 0.019 | Inhibition (%) [14]: 53.329 ± 3.884 % | OD [14]: 0.458 ± 0.038 | Inhibition (%) [15]: 59.757 ± 5.365 % | OD [15]: 0.442 ± 0.059 | Inhibition (%) [16]: 50.463 ± 1.693 % | OD [16]: 0.552 ± 0.019 | Inhibition (%) [17]: 47.730 ± 4.739 % | OD [17]: 0.510 ± 0.046 | Inhibition (%) [18]: 50.213 ± 2.165 % | OD [18]: 0.507 ± 0.022 | Inhibition (%) [19]: 49.268 ± 2.531 % | OD [19]: 0.474 ± 0.024 | Inhibition (%) [20]: 54.560 ± 3.675 % | OD [20]: 0.576 ± 0.047 | Inhibition (%) [21]: 50.805 ± 2.422 % | OD [21]: 0.479 ± 0.024 | Inhibition (%) [22]: 44.307 ± 3.404 % | OD [22]: 0.602 ± 0.037 | Inhibition (%) [23]: 54.910 ± 4.426 % | OD [23]: 0.435 ± 0.043 | Inhibition (%) [24]: 46.518 ± 1.484 % | OD [24]: 0.630 ± 0.017 | Inhibition (%) ([25]; Hep3B metastasis): 88.13*** % | Number of cell metastases ([25]; Hep3B): 70 ± 75.82 | Inhibition (%) [26]: 53.060 ± 1.911 % | OD [26]: 0.389 ± 0.016 | Inhibition (%) [27]: 53.926 ± 7.634 % | OD [27]: 0.460 ± 0.076
